Experimental data: EP0156347A2, “Glycosides of resofurin derivatives, method for their preparation and their use in the determination of the activity of glycosidases” (BOEHRINGER MANNHEIM GMBH, priority 1984, dated 1985)

How the values were obtained:
Type in all cases: biochemical
[1] = system: α-Amylase; assay: Determination of α-Amylase activity with reagent paper (Beispiel 21); conditions: filter paper soaked with substrate in Citratpuffer pH 6; sample with amylase plus α- and ß-Glucosidase; after a few minutes
From the text: Bestimmung der α-Amylase-Aktivität
Filterpapier wird mit Resorufin-maltoheptaosid (hergestellt gemäß Beispiel 17), gelöst in Citratpuffer, pH 6, getränkt. Das so ernaltene Reagenzpapier wird nacheinander mit der d-Amylase enthaltenden Probe sowie mit a- und ß-Glucosidase versetzt.
Mit Hilfe von Proben mit bekannter d-Amylase-Konzentration läßt sicn eine Eichkurve ermitteln, anhand derer der uhbekannte d-Amylase-Genalt einer Probe bestimmt werden Kann.

[2] = biological target: ß-D-Galaktosidase (Escherichia coli, UniProt P00722); assay: Kinetics of the enzymatic hydrolysis (Michaelis-Menten)
From the text: Bei der Synthese der Glycoside der Resorufin-Derivate der allgemeinen Formel II entstehen nicht-fluoreszierende Verbindungen, aus denen durch enzymatische Spaltung mit Hilfe der entsprechenden Glycosidasen wieder die fluoreszierenden Resorufin-Derivate freigesetzt werden. Die erfindungsgemäßen fluorogenen Resorufin-nerivate besitzen im Vergleich zu den bisher bekannten Glycosiden anderer chromogener bzw. fluorogener Gruppen sehr vorteilhafte Eigenschaften. Als monosubstituierte Derivate weisen sie eine Kinetik der enzymatischen Hydrolyse auf, die sehr einfach durch die Michaelis-Menten-Beziehung beschrieben werden kann. Für das Resorufin-ß-D-galactopyranosid gilt beispielsweise eine Michaelis-Konstante KM = 0,38 mmol/1. Die Hemmung dieser Hydrolyse durch das natürliche Substrat Lactose ist kompetitiv, so daß für bestimmte Untersuchungen der spezifische Umsatz von Glycosiden der Resorufin-Derivate durch Zugabe von natürlichen Glycosiden, wie Lactose im Falle der ß-D-Galaktosidase, definiert und reversibel verändert werden kann.

[3] = biological target: T1, freie ß-D-Galactosidase (Escherichia coli, UniProt P00722); assay: Determination of the activity of free ß-D-Galactosidase, photometric at 578 nm (Beispiel 20); conditions: 0,8 mmol/l substrate, 950 ul Reagenslösung + 50 ul Enzymlösung (ca. 0,08 U/ml), 37° C
T1 construct: purchased
Procedure: (§1) Bestimmung der Aktivität freier und konjugierter ß-D-Galactosidase
(§2) Reagenslösung: • In vorstehend beschriebener Pufferlösung werden 0,8 mmol/1 Resorufin-ß-D-galactopyranosid gelöst.
Enzymlösung: • Handelsübliche ß-D-Galactosidase aus Escherichia coli wird in Puffer gelöst. Die Aktivität dieser Lösung beträgt ca. 0,08 U/ml (bezogen auf die Hersteller-Angaben).
(§3) Die Messung erfolgt photometrisch bei 578 nm. 950 ul Reagenslösung werden jeweils in einer 1-cm-Küvette bei 37 °C mit 50 ul Enzymlösung bzw. mit 50 ul Enzym-Konjugat-Lösung vermischt. Als Maß für die Reaktion wird der Extinktionsanstieg pro Zeiteinheit in [mExt/min] ermittelt.

[4] = biological target: T2, ß-D-Galactosidase (Escherichia coli, UniProt P00722); assay: Determination of ß-D-Galactosidase activity, photometric at 579 nm (Beispiel 18); parameters: purchased; conditions: Extinktionsanstieg pro Zeiteinheit, 950 ul Reagens + 50 ul Enzymlösung (ca. 0,08 U/ml), 37° C, pH 7,3, substrate 0,8 / 3,5 / 1,0 mmol/l in Reagens 1 / 2 / 3
From the text: Bestimmung der Aktivität der ß-D-Galactosidase
In der vorstehend beschriebenen Pufferlösung werden 0,8 mmol/1 Resorufin-ß-D-galactopyranosid gelöst.
In der vorstehend beschriebenen Pufferlösung werden 3,5 mmol/1 Resorufin-9-carbonsäure-ß-D-galactopyranosid gelöst.
In der vorstehend beschriebenen Pufferlösung werden 1,0 mmol/1 Resorufin-9-carbonsäuremethylester-ß-D-galactopyranosid gelöst.
Handelsübliche ß-D-Galactosidase aus Escherichia coli wird in der vorstehend genannten Pufferlösung gelöst. Die AKtivität dieser Lösung beträgt ca. 0,08 U/ml (bezogen auf die Hersteller-Angaben).
Die Messung erfolgt photometrisch bei 579 nm.
950 ul Reagens werden in einer 1-cm-Küvette bei 37° C mit 50 ul Enzymlösung vermischt. Als Maß für die Reaktion wird der Extinktionsanstieg pro Zeiteinneit in [mExt/min] ermittelt. Er wird berechnet aus der gemessenen Extinktion durch Division mit der ReaKtionszeit.

[5] = biological target: T2, ß-D-Galactosidase; assay: Detection of ß-D-Galactosidase with an indicator film / test strip (Beispiel 19); conditions: test strip containing the substrate, dipped in ß-D-Galactosidase solution; 2 Minuten bei Raumtemperatur
Procedure: Nachweis von ß-D-Galactosidase mit Hilfe eines Indlkatorfilms
Zu einer nomogenen Masse werden verarbeitet: • 5 ml einer wäßrigen Lösung mit 0,5 M Kaliumphosphat und • 0,05 M Magnesiumchlorid, pH 7,3 . • 0,13 g Natriumalginat • 8 g einer 50 %igen Dispersion von Polyvinylpropionat • 10 g Kieselgel • 12 ml Wasser • 0,4 g Triton X-100 • 50 mg Resorufin-ß-D-galactopyranosid, in 5 ml Methanol gelöst.
Diese Masse wird auf eine 0,1 mm starke Polycarbonatfolie (poKalon, Fa. Lonza) mit einer Spaltbreite von 0,2 mm aufgetragen. Die Beschichtung wird bei 50° C getrocknet und danach in Stücke von 6 auf 6 mm geschnitten. Diese werden mit Hilfe von Klebeband auf eine 400 um starke Polystyrolfolie aufgeklebt.
Die so erhaltenen Teststreifen werden kurze Zeit in die zu prüfende, ß-D-Galactosidase enthaltende Lösung getaucht. […] Mit Hilfe von Testlösungen mit einem bestimmten, bekannten ß-D-Galactosidase-Gehalt kann man eine Farbskala erhalten, anhand derer der unbekannte Genalt an ß-D-Galactosidase in einer Probe ermittelt werden kann.

[6] = biological target: ß-D-Galactosidase-Antikörper-Konjugat (Escherichia coli, UniProt P00722); assay: Determination of the activity of conjugated ß-D-Galactosidase, photometric at 578 nm (Beispiel 20); conditions: 0,8 mmol/l substrate, 950 ul Reagenslösung + 50 ul Enzym-Konjugat-Lösung, 37° C
From the text: as §1, §2
Enzym-Konjugat-Lösung: • Verwendet wird ein ß-D-Galactosidase-Antikörper-Präparat. Die Herstellung solcher Enzym-Antikörper-Konjugate ist bekannt. Sie ist beispielsweise in Biochem. Biophys. Acta 612, 40 - 49 (1980) beschrieben. Das Präparat wird in Puffer so verdünnt, daß sich eine mit der oben beschriebenen Enzymlösung ungefähr vergleichbare Aktivität ergibt.
as §3

T2 sequence (P00722 2-1024): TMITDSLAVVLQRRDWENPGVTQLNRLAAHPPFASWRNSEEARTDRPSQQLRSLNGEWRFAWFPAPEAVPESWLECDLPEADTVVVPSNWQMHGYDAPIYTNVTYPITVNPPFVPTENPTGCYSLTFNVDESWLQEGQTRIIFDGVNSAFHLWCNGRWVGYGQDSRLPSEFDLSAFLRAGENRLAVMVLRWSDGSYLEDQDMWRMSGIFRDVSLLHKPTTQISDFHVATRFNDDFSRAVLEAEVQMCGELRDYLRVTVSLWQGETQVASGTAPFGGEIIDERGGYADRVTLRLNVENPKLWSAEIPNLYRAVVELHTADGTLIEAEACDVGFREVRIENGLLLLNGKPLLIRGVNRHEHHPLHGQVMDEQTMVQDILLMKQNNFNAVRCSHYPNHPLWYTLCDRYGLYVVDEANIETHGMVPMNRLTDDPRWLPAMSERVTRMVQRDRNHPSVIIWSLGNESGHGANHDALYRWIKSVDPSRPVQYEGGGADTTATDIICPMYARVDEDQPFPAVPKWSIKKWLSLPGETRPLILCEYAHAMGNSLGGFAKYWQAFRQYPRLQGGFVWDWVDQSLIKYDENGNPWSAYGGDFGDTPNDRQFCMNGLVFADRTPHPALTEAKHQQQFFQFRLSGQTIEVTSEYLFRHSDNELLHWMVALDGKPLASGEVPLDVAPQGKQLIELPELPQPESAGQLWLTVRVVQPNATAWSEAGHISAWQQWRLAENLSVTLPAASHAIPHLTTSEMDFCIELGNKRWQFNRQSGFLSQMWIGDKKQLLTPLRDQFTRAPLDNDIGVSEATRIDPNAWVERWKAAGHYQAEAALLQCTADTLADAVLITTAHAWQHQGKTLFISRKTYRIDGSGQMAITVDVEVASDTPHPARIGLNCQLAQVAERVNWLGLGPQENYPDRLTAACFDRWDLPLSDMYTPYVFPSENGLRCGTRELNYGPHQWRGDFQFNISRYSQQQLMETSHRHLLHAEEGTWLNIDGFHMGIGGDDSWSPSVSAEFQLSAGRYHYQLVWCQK
ß-D-Galaktosidase, sequence (P00722 2-1024): as above
ß-D-Galactosidase-Antikörper-Konjugat, sequence (P00722 2-1024): as above
T1 sequence (P00722 2-1024): as above

`O=c1ccc2nc3ccc(OC4OC(CO)C(OC5OC(CO)C(OC6OC(CO)C(OC7OC(CO)C(OC8OC(CO)C(OC9OC(CO)C(OC%10OC(CO)C(O)C(O)C%10O)C(O)C9O)C(O)C8O)C(O)C7O)C(O)C6O)C(O)C5O)C(O)C4O)cc3oc-2c1` (stereo not drawn) [Beispiel 17, Resorufin-maltoheptaosid] was tested, and the Rotfärbung [1] was “deutlich sicntbare Rotfärbung”.
`OC[C@H]1O[C@@H](O[C@H]2[C@H](O)[C@@H](O)C(O)O[C@@H]2CO)[C@H](O)[C@@H](O)[C@H]1O` (stereo partly drawn) [Lactose, reference compound] was tested, and the “Hemmung dieser Hydrolyse” value ([2]; inhibition of the hydrolysis of Resorufin-ß-D-galactopyranosid by the natural substrate) was “kompetitiv”.
For `O=c1ccc2nc3ccc(O[C@@H]4O[C@H](CO)[C@H](O)[C@H](O)[C@H]4O)cc3oc-2c1` [Reagens 1, Resorufin-ß-D-galactopyranosid], the “Extinktionsanstieg pro Zeiteinheit, Reaktion mit der freien ß-D-Galactosidase” value [3] was 85 mExt/min, the Reaktion [4] was 85 mExt/min and the Reaktionsfarbe [5] was “rote Reaktionsfarbe”. The Km ([2]; read-out: Michaelis-Konstante KM, enzymatic hydrolysis of the substrate) was 380 µM and the “Extinktionsanstieg pro Zeiteinheit, Reaktion mit ß-D-Galactosidase-Antikörper-Konjugat” value [6] was 92 mExt/min.
Work on “Resorufin-1-carbonsäuremethylester [Beispiel 3]” yielded a Reaktion [4] of 76 mExt/min.
In the case of Resorufin-ß-D-glucosid [Beispiel 2], the Reaktion [4] is reported as 46 mExt/min.
